Literature values in the CATMoS acute toxicity set (Mansouri et al. 2021).
“And” between values parts separate entries of the source, which are not always exact repeats. Identical values can stand only once.

Assay: rat acute oral toxicity
Details: in vivo

SMILES | LD50
CCOc1ccc(C2(c3ccc(OCC)cc3)CC2(Cl)Cl)cc1 | 755 mg/kg
O=C(O)CCCCC(=O)O | 7900 mg/kg and 10000 mg/kg
C[C@H](CS)C(=O)N1CCC[C@H]1C(=O)O | 4240 mg/kg
O=C1NCCN1c1ncc([N+](=O)[O-])s1 | 900 mg/kg
CC(C)=C[C@H]1[C@@H](C(=O)OCc2coc(Cc3ccccc3)c2)C1(C)C | 63 mg/kg
CN(C)/N=N/c1ccccc1C(=N)O | 56 mg/kg
OC(CCl)CNc1ccccc1NCC(O)CCl (centres undefined) | 900 mg/kg
C1CCC(N2CCOCC2)CC1 | 178 mg/kg
CCSC(=O)COc1ccc(Cl)cc1C | 790 mg/kg
C=CC(N)CCC(=O)O (centres undefined) | 3000 mg/kg
COC(=O)/C=C(/CC(=O)OC)OP(=O)(OC)OC | 31 mg/kg
Clc1cccc2c1Oc1c(Cl)c(Cl)c(Cl)c(Cl)c1O2 | 0.206 mg/kg
Cc1c(C)c(C)c2[nH]c(C(F)(F)F)nc2c1C | 58 mg/kg
Nc1c(S(=O)(=O)O)cc(Nc2ccc(S(=O)(=O)O)c(Nc3nc(Cl)nc(Cl)n3)c2)c2c1C(=O)c1ccccc1C2=O | 8980 mg/kg
Cc1nccnc1SCc1ccco1 | 1000 mg/kg
CN1CCC(c2c[nH]c3ccccc23)C1 (centres undefined) | 413 mg/kg
CSC(=N)N | 800 mg/kg
CCCCCCCC[N+](CC)(CC)CCOC(=O)C(C1CCCC1)C1CCCC1 | 1200 mg/kg
OCCC1CCCCC1 | 940 mg/kg
O=C(O)c1ccccc1Cl | 1140 mg/kg
CC1=C[C@H]2O[C@@H]3[C@H](O)[C@@H](O)[C@](C)([C@@]2(CO)[C@H](O)C1=O)[C@]31CO1 | 19.5 mg/kg
C=CCOc1ccc(C2=C(c3ccccc3)C(C)(C)Oc3cc(OC)ccc32)cc1 | 500 mg/kg
Cc1ccccc1C1OCC(O)CO1 (mixture of isomers) | 3400 mg/kg
O=C1CCc2cc(CCCN3CCN(c4ccccc4)CC3)ccc2N1 | 500 mg/kg
CCCOc1ccc(Cl)cc1C(CN(C)C)C(C)CC (centres undefined) | 561 mg/kg

SMILES | LD50
Cc1[nH]c(=O)n(C(C)C)c(=O)c1Br | 3400 mg/kg
CC1CSC(c2ccccc2OC(=O)N(C)C)S1 (centres undefined) | 140 mg/kg
CN(SSC(C)(C)C)C(=O)ON=C1SC(C)(C)C(=O)N1C | 299 mg/kg
Cc1ccc(N(SC(F)(Cl)Cl)S(=O)(=O)N(C)C)cc1 | 1000 mg/kg
O=C1CCOc2ccccc21 | 2650 mg/kg
CC(C(C)(C)C)C(C)(C)SSSC(C)(C)C(C)C(C)(C)C (centres undefined) | 19600 mg/kg
CN(C)CCCN1c2ccccc2CCc2cc(O)ccc21 | 2980 mg/kg
CCN(CC)CCOc1ccccc1C(=O)CCc1ccccc1 | 716 mg/kg
COc1ccc2c(-c3ccc(OCC(O)CNC(C)C)cc3)c(-c3ccccc3)c(=O)oc2c1 (centres undefined) | 1000 mg/kg
O=C(O)CCCc1ccc(N(CCCl)CCCl)cc1 | 76 mg/kg
CN(C)C(=O)NC1CCC2C3CCC(C3)C12 (centres undefined) | 1600 mg/kg
CCNP(=S)(OC)Oc1cc(Cl)c(Cl)cc1Cl (centres undefined) | 450 mg/kg
COP(=S)(OC)Oc1ccc([N+](=O)[O-])c(Cl)c1 | 285 mg/kg
FC(F)(F)c1nc2c(Cl)c(Br)c(Br)c(Br)c2[nH]1 | 5.25 mg/kg
CN(C)S(=O)(=O)CCCCCNC(=O)N(CCCl)N=O | 250 mg/kg
COC(=O)c1ccccc1O | 1700 mg/kg
CCCCCCCCCCCCCCCCCC(=O)OC[C@@H](O)[C@H]1OC[C@H](O)[C@H]1O | 31000 mg/kg
Cc1ccc(N(C)C)cc1 | 1650 mg/kg
CC1(C)CC(=O)CC(C)(C)N1[O] | 1460 mg/kg
CN1CCCC(CN2c3ccccc3Sc3ccccc32)C1 (centres undefined) | 1000 mg/kg
CCN(CC)CCOc1ccc2nc(N(C)C)sc2c1 | 880 mg/kg
C=CCN(CC=C)C(=O)CSP(=S)(OCC)OCC | 48 mg/kg
O=C(O)CCC(=O)c1ccc(C2CCCCC2)c(Cl)c1 | 120 mg/kg and 300 mg/kg
CCCCCCCCOC(CBr)c1ccc(C2CCCC2)cc1 (centres undefined) | 250 mg/kg
COCC(=O)O | 1000 mg/kg

SMILES | LD50
CO[C@@H]1[C@@H](O[C@@H]2O[C@H](C)[C@@H](O[C@H]3C[C@@](C)(O)[C@@H](OC(=O)CC(C)C)[C@H](C)O3)[C@H](N(C)C)[C@H]2O)[C@@H](CC=O)C[C@@H](C)[C@@H](O)C=CC=CC[C@@H](C)OC(=O)C[C@H]1O | 6990 mg/kg
CCN1CC(CCN2CCOCC2)C(c2ccccc2)(c2ccccc2)C1=O (centres undefined) | 261 mg/kg
CC1(C)C2CC=C(CCO)C1C2 (centres undefined) | 890 mg/kg
CN(C)c1ccc(N=Nc2ccc(S(=O)(=O)O)cc2)cc1 | 60 mg/kg
CNC(=O)Oc1c(C(C)C)ccc(C)c1Cl | 250 mg/kg
COc1ccc(CCl)cc1OC | 4700 mg/kg
O=C(O)c1cc2ccccc2oc1=O | 200 mg/kg
O=S(=O)(C(Cl)CCl)C(Cl)CCl (centres undefined) | 250 mg/kg
CC1(C)CC(NCCC(=O)NC2CC(C)(C)NC(C)(C)C2)CC(C)(C)N1 | 4180 mg/kg
O=C(O)c1c(Cl)ccc2cc(Cl)cnc12 | 2190 mg/kg
CCOC(=O)CSP(=O)(OC)OC | 385 mg/kg
CC(=O)CCC(=O)O | 1850 mg/kg
O=C(O)C1C2CCC(O2)C1C(=O)O (centres undefined) | 51 mg/kg
COc1ccc2c(c1)c(CC(=O)Oc1ccc(NC(C)=O)cc1)c(C)n2C(=O)c1ccc(Cl)cc1 | 887 mg/kg
CCN1CCCc2ccccc21 | 1780 mg/kg
CSC | 3300 mg/kg
CC1COC(C(Cl)(Cl)Cl)O1 (centres undefined) | 380 mg/kg
Cc1ccccc1C(=O)NC1=NCCS1 | 912 mg/kg
OCC1CCC(CO)CC1 (centres undefined) | 3200 mg/kg
ON=CC(O)(C#Cc1ccccc1)c1ccccc1 (centres undefined) | 8750 mg/kg
COc1ccc2c3c1O[C@H]1C(=O)CC[C@H]4[C@@H](C2)N(C)CC[C@]314 | 375 mg/kg
CCCSc1nc(Cl)c([N+](=O)[O-])c(Cl)n1 | 300 mg/kg
O=c1c(O)c(-c2ccc(O)c(O)c2)oc2cc(O)cc(O)c12 | 161 mg/kg
Cc1ccc(N=C=O)cc1N=C=O | 5800 mg/kg
